Literature values as cited in patent publication US20120178771A1, “Oral Pharmaceutical Compositions of Buprenorphine and Method of Use” (priority 2008, published 2012).

Legend:
[1] = orally administered, versus placebo; pain assessed 0.5 to 6 hours
[2] = human, in vivo

Compound | analgesia over the 6 hours, differences between the groups [1] | dose range required to control pain in about 90% of subjects [2] [fold]
CC(=O)Nc1ccc(O)cc1 [acetaminophen (paracetamol), acetaminophen] | no significant differences between the groups in analgesia | 
CN1CC[C@]23c4c5ccc(O)c4O[C@H]2[C@@H](O)C=C[C@H]3[C@H]1C5 [morphine] |  | 8
COc1ccc2c3c1O[C@H]1C(=O)CC[C@@]4(O)[C@@H](C2)N(C)CC[C@]314 [oxycodone] |  | 4
